{"source": "patent US6391881B1", "about": "“Thiourea derivatives of dihydropyridine NPY antagonists” (Bristol-Myers Squibb Company, priority 2000, dated 2002)", "origin": "cited, not measured here", "key": {"[1]": {"molecular_target": "T1, human neuroblastoma cells (SK-N-MC) (Homo sapiens, UniProt P25929)", "T1 construct": "displaces I-125 Bolton-Hunter labeled NPY in human neuroblastoma cells (SK-N-MC); host or cells: SK-N-MC human neuroblastoma cells (endogenous receptor; no transfection mentioned)", "T1 sequence (P25929 1-384)": "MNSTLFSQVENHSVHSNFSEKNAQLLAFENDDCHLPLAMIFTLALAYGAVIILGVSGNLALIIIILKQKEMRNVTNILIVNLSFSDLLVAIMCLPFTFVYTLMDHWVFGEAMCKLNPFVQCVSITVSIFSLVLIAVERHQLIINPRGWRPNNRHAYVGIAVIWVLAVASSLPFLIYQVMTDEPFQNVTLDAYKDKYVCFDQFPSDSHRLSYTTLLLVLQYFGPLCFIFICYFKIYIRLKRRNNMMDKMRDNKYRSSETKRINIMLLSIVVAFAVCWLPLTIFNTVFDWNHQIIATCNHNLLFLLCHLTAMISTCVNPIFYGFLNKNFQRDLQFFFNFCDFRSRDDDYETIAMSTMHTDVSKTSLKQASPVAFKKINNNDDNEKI"}, "[2]": {"system": "NPY-induced increase in intracellular Ca++ in SK-N-MG cells"}, "[3]": {"system": "NPY-induced pressor response", "settings": "pithed rat"}, "[4]": {"system": "NPY-induced Ca++ entry in HEL cells"}, "[5]": {"molecular_target": "T2, human neuroblastoma cells (Homo sapiens, UniProt P25929)", "T2 construct": "displacing I-125 labeled NPY and PYY in human neuroblastoma cells", "T2 sequence (P25929 1-384)": "T1 sequence (P25929 1-384)"}, "[6]": {"system": "NPY-related increases in diastolic blood pressure", "settings": "anesthetized guinea pig model"}, "[7]": {"system": "NPY-induced contractions in guinea pig basilar artery"}}, "data": [{"smiles": "NC(N)=NCCC[C@@H](NC(=O)C(c1ccccc1)c1ccccc1)C(=O)NCc1ccc(O)cc1", "note": "[BIBP 3226]", "values": [{"measurement": "displacement of I-125 Bolton-Hunter labeled NPY (in words)", "setting": "[1]", "value": "displaces"}, {"measurement": "antagonism of NPY-induced increase in intracellular Ca++ (in words)", "setting": "[2]", "value": "antagonized"}, {"measurement": "antagonism of NPY-induced pressor response (in words)", "setting": "[3]", "value": "antagonizing"}]}, {"smiles": "N=C(NCCCc1cnc[nH]1)NCCC(c1cc(F)cc(F)c1)c1ccccn1", "note": "(centres unmarked) [He 90481]", "values": [{"measurement": "antagonism of NPY-induced Ca++ entry (in words)", "setting": "[4]", "value": "weak but competitive antagonist"}, {"measurement": "pA2, antagonism of NPY-induced Ca++ entry", "setting": "[4]", "value": 4.43}]}, {"smiles": "CN(C)CC1CCC(CN=C(N)c2ccc(C[C@@H](NC(=O)[C@@H](Cc3ccccc3)NS(=O)(=O)c3ccc4ccccc4c3)C(=O)N3CCCC3)cc2)CC1", "note": "(some centres unmarked) [SR 120819A]", "values": [{"measurement": "displacement of I-125 labeled NPY and PYY (in words)", "setting": "[5]", "value": "displacing"}, {"measurement": "antagonism of NPY-related increases in diastolic blood pressure (in words)", "setting": "[6]", "value": "antagonized"}]}, {"smiles": "O=P(O)(O)OC1[C@H](OP(=O)(O)O)[C@H](O)C(O)[C@H](O)[C@H]1OP(=O)(O)O", "note": "(stereo partly drawn) [D-Myo-inositol-1,2,6-triphosphate]", "values": [{"measurement": "antagonism of NPY-induced contractions (in words)", "setting": "[7]", "value": "potent but non-competitive antagonist"}]}]}
